Here are results for 17 compounds from ChEMBL document CHEMBL1155995, “Pyrrole[2,3-d]azepino compounds as agonists of the farnesoid X receptor (FXR)” (Bioorg Med Chem Lett, 2009).

Converted amounts (≈) assume the structure as drawn. Where only a bound is given, the exact number is not on record here.

Test system in the first data set: not listed separately
The data set is described as follows: Aqueous solubility at pH 7.4. Conditions: aqueous.
In the case of `CC(C)OC(=O)C1CN(C(=O)C2CCOCC2)CC(C)(C)c2cc(C#N)[nH]c21` (stereo not given), the solubility was more than 100 µg/mL.
Same read-out and setting: next, `CC(C)OC(=O)C1CN(C(=O)C2CCCCC2)CC(C)(C)c2cc(C#N)[nH]c21` (stereo not given): more than 100 µg/mL; `CC(C)OC(=O)C1CN(C(=O)c2ccc(Cl)cc2)CC(C)(C)c2cc(C#N)[nH]c21` (stereo not given): 5 µg/mL (≈ 12.1 µM); `CC(C)OC(=O)C1CN(C(=O)c2ccc(C#N)cc2)CC(C)(C)c2cc(C#N)[nH]c21` (stereo not given): 21 µg/mL (≈ 51.9 µM).
In turn, `CC(C)OC(=O)C1CN(C(=O)c2ccc(F)cc2)CC(C)(C)c2cc(C#N)[nH]c21` (stereo not given) gave a solubility of more than 100 µg/mL.
Still for that read-out and setting: the same measure for `CC(C)OC(=O)C1CN(C(=O)c2ccc(F)c(F)c2)CC(C)(C)c2cc(C#N)[nH]c21` (stereo not given): 31 µg/mL (≈ 74.6 µM); for `CC(C)OC(=O)C1CN(C(=O)c2cccc(Cl)c2)CC(C)(C)c2cc(C#N)[nH]c21` (stereo not given): 17 µg/mL (≈ 41.1 µM).
Regarding `CC(C)OC(=O)C1CN(C(=O)c2cccc(F)c2)CC(C)(C)c2cc(C#N)[nH]c21` (stereo not given), the solubility was more than 100 µg/mL.

The same data set, now with this note: buffer.
As for `CC(C)OC(=O)C1=CN(C(=O)c2cccc(C(F)(F)F)c2)CC(C)(C)c2cc(C#N)[nH]c21`, the solubility entry is given as “Insoluble(BLD)”.
Still for that read-out and setting: next, `CC(C)OC(=O)C1=CN(C(=O)c2cccc(F)c2)CC(C)(C)c2cc(C#N)[nH]c21`: “Insoluble(BLD)”; `CC(C)OC(=O)C1=CN(C(=O)c2ccc(F)cc2)CC(C)(C)c2cc(C#N)[nH]c21`: “Insoluble(BLD)”.
Take `CC(C)OC(=O)C1=CN(C(=O)C2CCCCC2)CC(C)(C)c2cc(C#N)[nH]c21`: the solubility result was “Insoluble(BLD)”.
The same measure, in the same setting: next, `CC(C)OC(=O)C1=CN(C(=O)c2ccc(F)c(F)c2)CC(C)(C)c2c1[nH]c1ccccc21` [TUROFEXORATE ISOPROPYL]: “Insoluble(BLD)”.
Still for that read-out and setting: next, `CC(C)OC(=O)C1=CN(C(=O)c2ccc(C#N)cc2)CC(C)(C)c2cc(C#N)[nH]c21`: “Insoluble(BLD)”; `CC(C)OC(=O)C1=CN(C(=O)c2ccc(F)c(F)c2)CC(C)(C)c2cc(C#N)[nH]c21`: “Insoluble(BLD)”.
Still for that read-out and setting: next, `CC(C)OC(=O)C1=CN(C(=O)c2cccs2)CC(C)(C)c2cc(C#N)[nH]c21`: “Insoluble(BLD)”; `CC(C)OC(=O)C1=CN(C(=O)c2cccc(Cl)c2)CC(C)(C)c2cc(C#N)[nH]c21`: “Insoluble(BLD)”.

Another data set concerns the target T1, Bile acid receptor (Homo sapiens, UniProt Q96RI1).
T1 sequence (Q96RI1 whole entry): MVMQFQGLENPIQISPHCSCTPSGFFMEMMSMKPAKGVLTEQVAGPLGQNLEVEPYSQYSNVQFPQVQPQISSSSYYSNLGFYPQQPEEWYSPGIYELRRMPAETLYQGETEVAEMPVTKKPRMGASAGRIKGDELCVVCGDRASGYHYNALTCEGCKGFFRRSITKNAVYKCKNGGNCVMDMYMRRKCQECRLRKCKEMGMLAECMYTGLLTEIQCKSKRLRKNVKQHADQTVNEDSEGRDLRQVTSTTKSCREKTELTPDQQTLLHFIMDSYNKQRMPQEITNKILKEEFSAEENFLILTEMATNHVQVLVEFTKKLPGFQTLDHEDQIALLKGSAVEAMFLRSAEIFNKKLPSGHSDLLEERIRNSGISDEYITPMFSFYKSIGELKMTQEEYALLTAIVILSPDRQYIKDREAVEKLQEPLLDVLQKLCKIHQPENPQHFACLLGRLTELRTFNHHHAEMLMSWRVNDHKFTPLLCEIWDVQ
Details: not given
In the case of `CC(C)OC(=O)C1=CN(C(=O)c2cccc(C(F)(F)F)c2)CC(C)(C)c2cc(C#N)[nH]c21`, the half-maximal effective concentration (EC50) amounted to 8.5 nM.
Compound `CC(C)OC(=O)C1=CN(C(=O)c2ccc(F)c(F)c2)CC(C)(C)c2cc(C#N)[nH]c21` had a concentration giving a half-maximal response (EC50) of 6.3 nM.
Consider `CC(C)OC(=O)C1=CN(C(=O)c2cccs2)CC(C)(C)c2cc(C#N)[nH]c21`, for which the EC50 is 16 nM.
